Like-named read-outs stand apart in the source and are kept apart here.
Key:
[1] = cited from earlier work
[2] = biological target: T1, 5-HT1a (Rattus norvegicus, UniProt P19327); conditions: functional tests, Eur J Pharmacol. 1986; 128 (3): 295-8; cited from earlier work
T1 construct: suppressant effects of 5-HT1a agonists on dorsal raphe neuronal firing; host or cells: dorsal raphe neurons (endogenous receptor)
T1 sequence (P19327 1-422): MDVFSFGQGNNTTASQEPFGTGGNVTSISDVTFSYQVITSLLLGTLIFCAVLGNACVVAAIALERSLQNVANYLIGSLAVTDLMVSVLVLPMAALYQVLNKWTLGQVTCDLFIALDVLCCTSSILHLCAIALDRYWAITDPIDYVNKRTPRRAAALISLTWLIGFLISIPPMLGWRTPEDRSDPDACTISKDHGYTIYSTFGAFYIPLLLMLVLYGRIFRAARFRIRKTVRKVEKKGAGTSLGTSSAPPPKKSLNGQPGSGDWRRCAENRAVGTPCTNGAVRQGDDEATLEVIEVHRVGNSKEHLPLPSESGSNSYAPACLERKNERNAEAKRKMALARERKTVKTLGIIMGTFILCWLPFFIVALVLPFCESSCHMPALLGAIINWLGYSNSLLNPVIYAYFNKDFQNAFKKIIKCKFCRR

[3] = system: Ascites hepatoma Yoshida AH-130 cells; experiment: Yoshida AH-130 ascites hepatoma rat model of cancer cachexia; type: in vivo, male Wistar rats; conditions: for Locomotor activity 24 h day 11: Supermex system, marker for fatigue; for Locomotor activity 24 h day 11 / Food intake day 11 / Lean tissue gain without tumour / Lean tissue without tumour / Weight gain without tumour / Body weight without tumour: mean±SEM; for Lean tissue gain without tumour / Lean tissue without tumour / Weight gain without tumour / Body weight without tumour: end of study; for Body weight without tumour: oral gavage, twice daily
From the text: Ascites hepatoma Yoshida AH-130 cells (10^8 cells) are inoculated into 180-200 g male Wistar rats. Alternatively animals receive saline injection only (sham). The animals are housed in groups of three. The day after inoculation animals are randomized into various groups and then receive twice daily treatment with either placebo or compounds over a period of up to 17 days. The primary endpoints of the study include assessment of body weight, body composition (with and without tumour) and survival. Organ weight is assessed at the end of the study (or after death) as a secondary endpoint. In addition locomotor activity is used to assess fatigue using Supermex system (Muromachi, Tokyo, Japan) over a period of 24 hours in cages where the animals are placed individually (type 3 cage); missing data (if due to death) are imputed as ‘zero’ activity; a sensitivity analysis without imputed points is additionally performed. Food intake is also measured. Results are expressed as mean±SEM at the end of the study except where stated otherwise. Doses represent total daily dose given by oral gavage.

[4] = animal model of cancer cachexia, summary in words

SMILES: CC(C)NCC(O)COc1cccc2[nH]ccc12 (racemic) [racemic pindolol, pindolol, reference compound]
- Effect on blood pressure ([1]; healthy subjects, similar dose of (S)-pindolol and racemic pindolol): reducing diastolic blood pressure

SMILES: CC(C)NC[C@H](O)COc1cccc2ccccc12 [(S)-propranolol, (S)-1-isopropylamino-3-(1-naphthyloxy)-2-propanol]
- Block of the suppressant effects of 5-HT1a agonists on dorsal raphe neuronal firing [2]: blocked the suppressant effects

SMILES: CC(C)NC[C@@H](O)COc1cccc2ccccc12 [(R)-propranolol, reference compound]
- Block of the suppressant effects of 5-HT1a agonists on dorsal raphe neuronal firing [2]: not

SMILES: CC(C)NC[C@H](O)COc1cccc2[nH]ccc12 [S-pindolol, S-(−)-1-(1H-indol-4-yloxy)-3-(1-methylethylamino)propan-2-ol]
- Locomotor activity 24 h day 11 ([3]; 0.3 mg/kg/d oral gavage): 361 ± 38
- Food intake day 11 ([3]; 0.3 mg/kg/d oral gavage): 7.75 ± 5.22 g
- Lean tissue gain without tumour ([3]; 0.3 mg/kg/d oral gavage): -1.17 ± 15.84 g
- Lean tissue without tumour ([3]; 0.3 mg/kg/d oral gavage): 152.37 ± 15.47 g
- Weight gain without tumour ([3]; 0.3 mg/kg/d oral gavage): -8.50 ± 19.19 g
- Body weight without tumour ([3]; 0.3 mg/kg/d total daily dose): 178.89 ± 17.04 g
- Locomotor activity 24 h day 11 ([3]; 3 mg/kg/d oral gavage): 368 ± 50
- Food intake day 11 ([3]; 3 mg/kg/d oral gavage): 15.33 ± 3.84 g
- Lean tissue gain without tumour ([3]; 3 mg/kg/d oral gavage): 18.90 ± 16.06 g
- Lean tissue without tumour ([3]; 3 mg/kg/d oral gavage): 171.99 ± 15.92 g
- Weight gain without tumour ([3]; 3 mg/kg/d oral gavage): 17.30 ± 20.08 g
- Body weight without tumour ([3]; 3 mg/kg/d total daily dose): 215.10 ± 19.89 g
- Effect on cachectic weight loss [3, 4]: able to reduce cachectic weight loss
- Effect on locomotor activity, as a marker for fatigue [3, 4]: positive effect on locomotor activity
- Effect on tumour weight [3, 4]: reducing the tumour weight
- Effect on blood pressure ([1]; in vivo): no alteration in blood pressure in a majority of healthy subjects

SMILES: CC(C)NCC(O)COc1ccc(COCCOC(C)C)cc1 (centres unmarked) [Bisoprolol, reference compound]
- Locomotor activity 24 h day 11 ([3]; 5 mg/kg/d oral gavage): 315 ± 58
- Food intake day 11 ([3]; 5 mg/kg/d oral gavage): 16.00 ± 3.07 g
- Lean tissue gain without tumour ([3]; 5 mg/kg/d oral gavage): -1.38 ± 11.31 g
- Lean tissue without tumour ([3]; 5 mg/kg/d oral gavage): 158.10 ± 11.86 g
- Weight gain without tumour ([3]; 5 mg/kg/d oral gavage): -5.46 ± 15.95 g
- Body weight without tumour ([3]; 5 mg/kg/d total daily dose): 202.0 ± 16.04 g
- Locomotor activity 24 h day 11 ([3]; 50 mg/kg/d oral gavage): 277 ± 39
- Food intake day 11 ([3]; 50 mg/kg/d oral gavage): 9.94 ± 2.10 g
- Lean tissue gain without tumour ([3]; 50 mg/kg/d oral gavage): -28.96 ± 6.64 g
- Lean tissue without tumour ([3]; 50 mg/kg/d oral gavage): 124.77 ± 7.17 g
- Weight gain without tumour ([3]; 50 mg/kg/d oral gavage): -30.30 ± 10.95 g
- Body weight without tumour ([3]; 50 mg/kg/d total daily dose): 159.18 ± 9.64 g
- Effect on locomotor activity, as a marker for fatigue [3, 4]: neutral to negative

— US8716325B2, “Treatment of cachexia” (PsiOxus Therapeutics Limited, priority 2006, dated 2014)
